Measurements reported in ChEMBL document CHEMBL2417463, “Synthesis and identification of new flavonoids targeting liver X receptor β involved pathway as potential facilitators of Aβ clearance with reduced lipid accumulation” (J Med Chem, 2013).

Assays:
Format in all cases: cell-based
[1] = target: T1, Oxysterols receptor LXR-beta (Mus musculus) (UniProt Q60644); assay: Agonist activity at LXRbeta in mouse RAW264.7 cells assessed as induction of ABCA1 promoter activation at 1 uM after 24 hrs by Dual-Glo luciferase reporter gene assay relative to vehicle-treated control
T1 sequence (whole entry): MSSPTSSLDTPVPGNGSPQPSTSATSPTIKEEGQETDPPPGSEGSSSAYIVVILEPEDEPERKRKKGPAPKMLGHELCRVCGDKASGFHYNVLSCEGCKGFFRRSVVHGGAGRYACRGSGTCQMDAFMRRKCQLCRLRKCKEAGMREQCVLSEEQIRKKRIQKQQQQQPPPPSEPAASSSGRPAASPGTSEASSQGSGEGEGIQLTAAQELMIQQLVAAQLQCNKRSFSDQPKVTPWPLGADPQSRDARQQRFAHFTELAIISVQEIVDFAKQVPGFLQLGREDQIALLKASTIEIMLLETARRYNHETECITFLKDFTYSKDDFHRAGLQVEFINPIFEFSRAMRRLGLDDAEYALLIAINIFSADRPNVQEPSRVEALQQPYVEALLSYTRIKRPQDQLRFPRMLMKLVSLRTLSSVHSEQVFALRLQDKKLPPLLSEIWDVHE

[2] = target: T1, Oxysterols receptor LXR-beta (Mus musculus); assay: Agonist activity at LXRbeta in mouse BV2 cells assessed as degradation of intracellular soluble amyloid beta42 at 1 uM preincubated for 18 hrs followed by soluble amyloid beta42 addition measured after 24 hrs by ELISA relative to vehicle-treated control; details: BV-2
HepG2 [3] = assay: Induction of cytoplasmic lipid accumulation in human HepG2 cells at 1 uM after 4 days by oil red O staining-based light microscopic analysis; details: hepg2, 96 h
HepG2 [4] = assay: Induction of intracellular triglyceride accumulation in human HepG2 cells at 1 uM after 4 days relative to vehicle-treated control; details: hepg2, 96 h

SMILES	fold change (FC) [1]	further results
CC(C)OC(=O)C(C)(C)Oc1ccc(C(=O)c2ccc(Cl)cc2)cc1	1.1	–
COc1ccc(-c2ccc(-c3cc(=O)c4ccc(O)cc4o3)s2)cc1	1.03	–
CC(C)c1ccc(-c2cc(=O)c3ccc(O)cc3o2)cc1	1.22	–
O=S(=O)(c1ccccc1)N(CC(F)(F)F)c1ccc(C(O)(C(F)(F)F)C(F)(F)F)cc1 [T091317]	–	Activity (HepG2 [3]): Toxic; Activity (HepG2 [4]): 175%
O=c1cc(-c2ccc3ccccc3c2)oc2cc(O)ccc12	1.57	Activity [2]: 7%
Cc1ccc(-c2cc(=O)c3ccc(N)cc3o2)o1	1.3	–
CC1=C(/C=C/C(C)=C\C=C\C(C)=C\C(=O)O)C(C)(C)CCC1	2.18	–
O=c1cc(-c2cccc(Oc3ccccc3)c2)oc2cc(O)ccc12	1.17	–
COc1cc(N(C)C)ccc1C(=O)/C=C/c1ccc(C)o1	1.57	–
COc1cc(N(C)C)ccc1C(=O)/C=C/c1ccc2ccccc2c1	1.35	–
Cc1ccc(CCC(=O)c2ccc(N)cc2O)o1	1.9	–

Further lines, with some results ahead:

fold change (FC) [1]	SMILES	further results
1.5	COc1cc(N)ccc1C(=O)/C=C/c1ccc(C)s1	–
1.92	Nc1ccc(C(=O)/C=C/c2ccc3c(c2)OCO3)c(O)c1	Activity [2]: 40%
0.88	COc1cc(N)ccc1C(=O)/C=C/c1ccc2ccccc2c1	–
1.2	COc1cc(N)ccc1C(=O)/C=C/c1ccc(C)o1	–
2.05	CC(C)c1ccc(/C=C/C(=O)c2ccc(N)cc2O)cc1	–
1.06	CCOc1ccc(/C=C/C(=O)c2ccc(N)cc2OC)cc1	–
2	Cc1ccc(/C=C/C(=O)c2ccc(N)cc2O)s1	Activity [2]: 37%
2.09	COc1cccc(/C=C/C(=O)c2ccc(N)cc2O)c1	Activity [2]: 33%
1.16	Nc1ccc(C(=O)/C=C/c2ccc(Cl)cc2)c(O)c1	–
1.86	CCOc1ccc(/C=C/C(=O)c2ccc(N)cc2O)cc1OC	Activity [2]: 23%
1.76	Nc1ccc(C(=O)/C=C/c2cccc(Oc3ccccc3)c2)c(O)c1	–
